Like-named read-outs stand apart in the source and are kept apart here.
Experiments:
p110α = p110α (UniProt P32871); test: PI 3-kinase lipid kinase assay with recombinant GST-p110α, PtdIns as substrate; type: biochemical
Description: Typically, PI 3-kinase assays were performed in a total volume of 50 μl containing 20 mM Hepes pH7.4. 100 mM NaCl, 0.1 mM EGTA, 0.1% β-mercaptoethanol, and 200 μM phosphoinositide. After preincubating sonicated lipid with sample for 10 minutes, the reactions were initiated upon the addition of 2.5 mM MgCl2, 100 mM ATP (0.2 μCiγ[^32 P] ATP). Assays were incubated at 30° C. for 20 minutes and terminated with acidified chloroform:methanol. The extracted lipid products were analysed by thin layer chromatography using Silica gel 60 plates and chloroform:methanol:4M ammonium hydroxide (45:35:10) for assays examining phosphorylation of Ptdlns. When separations of PtdIns 3P, PtdIns (3,4) P2 and PItdIns (3,4,5) P3 was required, propan-1-ol: 2M acetic acid (65:35) was used. Phosphorylated lipids were visualised by either autoradiography or by phosphoimage analysis (Molecular Dynamics). Assays were linear with respect to time and enzyme addition.
(§1) The effect of these inhibitors on the lipid kinase activity of PI3K-C2α was examined, using PtdIns as a substrate, in the presence of increasing concentrations of each inhibitor.

PI3K-C2α = biological target: T1, PI3K-C2α (Homo sapiens, UniProt O00443); test: PI 3-kinase lipid kinase assay with recombinant GST-PI3K-C2α, PtdIns as substrate; type: biochemical
T1 construct: made in house; host or cells: Sf9 insect cells (baculovirus, pAcGex vector)
T1 sequence (O00443 148-1686): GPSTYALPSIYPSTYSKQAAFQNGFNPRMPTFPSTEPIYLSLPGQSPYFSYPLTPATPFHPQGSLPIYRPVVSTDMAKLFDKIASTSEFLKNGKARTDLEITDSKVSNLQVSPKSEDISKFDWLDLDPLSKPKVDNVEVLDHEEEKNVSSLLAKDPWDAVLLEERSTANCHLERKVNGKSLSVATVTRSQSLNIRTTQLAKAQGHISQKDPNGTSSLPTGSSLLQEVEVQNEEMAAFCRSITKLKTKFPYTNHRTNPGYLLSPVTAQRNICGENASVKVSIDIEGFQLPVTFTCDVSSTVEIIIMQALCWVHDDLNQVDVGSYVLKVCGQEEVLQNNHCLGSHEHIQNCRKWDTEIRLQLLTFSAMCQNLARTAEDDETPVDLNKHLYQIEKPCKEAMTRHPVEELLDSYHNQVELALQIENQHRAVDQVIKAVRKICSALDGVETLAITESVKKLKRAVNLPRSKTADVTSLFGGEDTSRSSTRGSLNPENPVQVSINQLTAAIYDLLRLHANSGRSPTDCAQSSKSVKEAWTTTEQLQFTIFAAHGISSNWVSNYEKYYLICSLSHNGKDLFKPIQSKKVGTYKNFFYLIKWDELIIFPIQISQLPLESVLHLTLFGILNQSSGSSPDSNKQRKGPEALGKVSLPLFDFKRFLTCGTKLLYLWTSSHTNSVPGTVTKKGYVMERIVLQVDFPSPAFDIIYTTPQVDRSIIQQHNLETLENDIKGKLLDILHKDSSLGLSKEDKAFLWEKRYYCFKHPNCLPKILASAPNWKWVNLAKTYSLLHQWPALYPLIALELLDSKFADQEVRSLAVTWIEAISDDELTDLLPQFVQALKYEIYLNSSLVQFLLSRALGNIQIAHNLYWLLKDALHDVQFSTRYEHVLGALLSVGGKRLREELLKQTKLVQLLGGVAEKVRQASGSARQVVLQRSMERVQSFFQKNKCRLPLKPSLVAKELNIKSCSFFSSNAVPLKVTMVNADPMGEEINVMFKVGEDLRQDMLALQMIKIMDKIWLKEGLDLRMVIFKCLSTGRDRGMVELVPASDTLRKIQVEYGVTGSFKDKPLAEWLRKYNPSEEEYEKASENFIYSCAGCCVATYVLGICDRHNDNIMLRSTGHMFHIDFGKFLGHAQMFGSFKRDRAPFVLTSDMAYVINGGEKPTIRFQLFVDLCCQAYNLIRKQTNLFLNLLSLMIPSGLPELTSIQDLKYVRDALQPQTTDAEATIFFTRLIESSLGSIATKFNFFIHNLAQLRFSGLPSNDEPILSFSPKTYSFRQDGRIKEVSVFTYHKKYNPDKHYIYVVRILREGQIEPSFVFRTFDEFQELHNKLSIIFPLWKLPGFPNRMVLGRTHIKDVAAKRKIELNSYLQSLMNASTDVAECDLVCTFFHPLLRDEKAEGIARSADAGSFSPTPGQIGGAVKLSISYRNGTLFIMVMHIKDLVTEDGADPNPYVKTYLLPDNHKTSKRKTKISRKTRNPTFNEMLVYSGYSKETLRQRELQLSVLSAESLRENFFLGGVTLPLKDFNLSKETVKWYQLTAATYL
Description: Typically, PI 3-kinase assays were performed in a total volume of 50 μl containing 20 mM Hepes pH7.4. 100 mM NaCl, 0.1 mM EGTA, 0.1% β-mercaptoethanol, and 200 μM phosphoinositide. After preincubating sonicated lipid with sample for 10 minutes, the reactions were initiated upon the addition of 2.5 mM MgCl2, 100 mM ATP (0.2 μCiγ[^32 P] ATP). Assays were incubated at 30° C. for 20 minutes and terminated with acidified chloroform:methanol. The extracted lipid products were analysed by thin layer chromatography using Silica gel 60 plates and chloroform:methanol:4M ammonium hydroxide (45:35:10) for assays examining phosphorylation of Ptdlns. When separations of PtdIns 3P, PtdIns (3,4) P2 and PItdIns (3,4,5) P3 was required, propan-1-ol: 2M acetic acid (65:35) was used. Phosphorylated lipids were visualised by either autoradiography or by phosphoimage analysis (Molecular Dynamics).
The enzymatic activity and substrate specificity were investigated and compared to that of GST-p110α expressed in the same system.
as §1

Question: What does the source list for `COC[C@H]1OC(=O)c2coc3c2[C@@]1(C)C1=C(C3=O)[C@@H]2CCC(=O)[C@@]2(C)C[C@H]1OC(C)=O` [Wortmannin]?
Answer: IC50 (p110α; read-out: IC50 of p110α lipid kinase activity, Wortmannin, FIG. 5A): 3 nM; IC50 (PI3K-C2α; Wortmannin, PtdIns substrate, FIG. 5A): 200 nM

Question: What does the source list for `O=c1cc(N2CCOCC2)oc2c(-c3ccccc3)cccc12` [LY294002, 2-(4-morpholinyl)-8-phenyl-4H-1-benzopyran-4-one]?
Answer: concentration giving maximal inhibition of p110α (p110α; LY294002, FIG. 5B): 300 µM; IC50 (PI3K-C2α): 20000 nM; difference in sensitivity between PI3K-C2α and p110α (PI3K-C2α; LY294002, PI3K-C2α less sensitive than p110α): approximately one order of magnitude; concentration giving maximal attenuation of PI3K-C2α lipid kinase activity (PI3K-C2α; LY294002, PtdIns substrate): 2 mM

— US6770467B2, “Screening method for ligands with class II P13 kinase modulating activity” (Ludwig Institute for Cancer Research, priority 1997, dated 2004)
